Source: patent US6982348B2, “Aminoethanol derivatives” (Takeda Pharmaceutical Company Limited, priority 2001, dated 2006)
Counter-ions that a name gives are not always drawn.

melting point [°C]	SMILES
184 to 185	COc1ccc([C@H](O)[C@@H](Cc2ccc(C(F)(F)F)cc2)NC(=O)c2ccc(F)c3ccccc23)cc1 (racemic) [Example 192, 4-fluoro-N-((1RS,2SR)-2-hydroxy-2-(4-methoxyphenyl)-1-((4-(trifluoromethyl)phenyl)methyl)ethyl)-1-naphthalenecarboxamide]
222 to 223	O=C(N[C@H](Cc1ccc(C(F)(F)F)cc1)[C@@H](O)c1ccc(F)cc1)c1ccc(Cl)c2ccccc12 (racemic) [Example 34, 4-chloro-N-[(1RS,2SR)-2-(4-fluorophenyl)-2-hydroxy-1-[4-(trifluoromethyl)benzyl]ethyl]naphthalene-1-carboxamide]
150 to 151	O=C(CCCc1ccccc1)N[C@H](Cc1ccc(C(F)(F)F)cc1)[C@@H](O)c1ccc(F)cc1 (racemic) [Example 47, N-((1RS,2SR)-2-(4-fluorophenyl)-2-hydroxy-1-((4-(trifluoromethyl)phenyl)methyl)ethyl)-4-phenylbutyramide]
133 to 134	O=C(CCc1ccccc1)N[C@H](Cc1ccc(C(F)(F)F)cc1)[C@@H](O)c1ccc(Oc2ccccc2)cc1 (racemic) [Example 211, N-((1RS,2SR)-2-hydroxy-2-(4-phenoxyphenyl)-1-((4-(trifluoromethyl)phenyl)methyl)ethyl)-3-phenylpropanamide]
174 to 176	COc1ccc(C(=O)NC(Cc2ccc(C(F)(F)F)cc2)C(O)c2ccc(F)cc2)cc1 (racemic) [Example 7, N-[2-(4-fluorophenyl)-2-hydroxy-1-[[4-(trifluoromethyl)phenyl]methyl]ethyl]-4-methoxybenzamide]
196 to 197	CN(C(=O)c1cccc2ccccc12)[C@H](Cc1ccc(C(F)(F)F)cc1)[C@@H](O)c1ccc(F)cc1 (racemic) [Example 121, N-((1RS,2SR)-2-(4-fluorophenyl)-2-hydroxy-1-((4-(trifluoromethyl)phenyl)methyl)ethyl)-N-methyl-1-naphthalenecarboxamide]
217 to 218	O=C(N[C@H](Cc1ccc(C(F)(F)F)cc1)[C@@H](O)c1ccccc1)c1ccc(F)c2ccccc12 (racemic) [Example 174, 4-fluoro-N-((1RS,2SR)-2-hydroxy-2-phenyl-1-((4-(trifluoromethyl)phenyl)methyl)ethyl)-1-naphthalenecarboxamide]
169 to 170	CN(C)c1ccc(C(=O)N[C@H](Cc2ccc(C(F)(F)F)cc2)[C@@H](O)c2ccc(F)cc2)c2ccccc12 (racemic) [Example 75, 4-(dimethylamino)-N-((1RS,2SR)-2-(4-fluorophenyl)-2-hydroxy-1-((4-(trifluoromethyl)phenyl)methyl)ethyl)-1-naphthalenecarboxamide]
174 to 175	O=C(N[C@H](Cc1ccc(C(F)(F)F)cc1)[C@@H](O)c1ccc(F)cc1)c1ccc2ccccc2c1 (racemic) [Example 63, N-((1RS,2SR)-2-(4-fluorophenyl)-2-hydroxy-1-((4-(trifluoromethyl)phenyl)methyl)ethyl)-2-naphthalenecarboxamide]

Second part, the molecule before the results:

SMILES	melting point [°C]
O=C(O)c1ccc(COc2ccc([C@@H](O)[C@H](Cc3cccc(OC(F)(F)C(F)F)c3)NC(=O)c3cccc4c3C=CCCC4)cc2)cc1 (racemic) [Example 250, 4-[(4-{(1RS,2SR)-2-[(6,7-dihydro-5H-benzo[a][7]annulen-1-ylcarbonyl)amino]-1-hydroxy-3-[3-(1,1,2,2-tetrafluoroethoxy)phenyl]propyl}phenoxy)methyl]benzoic acid]	190 to 191
O=C(N[C@H](Cc1ccc(C(F)(F)F)cc1)[C@@H](O)c1cccc2ccccc12)c1ccc(C(F)(F)F)cc1 (racemic) [Example 189, N-((1RS,2SR)-2-hydroxy-2-(1-naphthalenyl)-1-((4-(trifluoromethyl)phenyl)methyl)ethyl)-4-(trifluoromethyl)benzamide]	232 to 233
Cc1ccc(C(=O)N[C@H](Cc2cccc(OC(F)(F)C(F)F)c2)[C@@H](O)c2ccc(F)cc2)c2c1CCCC=C2 (racemic) [Example 318, N-[(1RS,2SR)-2-(4-fluorophenyl)-2-hydroxy-1-[3-(1,1,2,2-tetrafluoroethoxy)benzyl]ethyl]-4-methyl-6,7-dihydro-5H-benzo[a]cycloheptene-1-carboxamide]	177 to 178
O=C(N[C@H](Cc1cccc(O)c1)[C@@H](O)c1ccc(F)cc1)c1ccc(F)c2ccccc12 (racemic) [Example 286, 4-fluoro-N-[(1RS,2SR)-2-(4-fluorophenyl)-2-hydroxy-1-(3-hydroxybenzyl)ethyl]-1-naphthamide]	179 to 180
O=C(NCc1ccccc1)c1ccc([C@H](O)[C@@H](Cc2cccc(OC(F)(F)C(F)F)c2)NC(=O)c2cccc3c2C=CCCC3)cc1 (racemic) [Example 316, N-[(1RS,2SR)-2-[4-[(benzylamino)carbonyl]phenyl]-2-hydroxy-1-[3-(1,1,2,2-tetrafluoroethoxy)benzyl]ethyl]-6,7-dihydro-5H-benzo[a]cycloheptene-1-carboxamide]	216 to 217
NC(=O)c1ccc([C@H](O)[C@@H](Cc2cccc(OC(F)(F)C(F)F)c2)NC(=O)c2cccc3c2C=CCCC3)cc1 (racemic) [Example 311, N-[(1RS,2SR)-2-[4-(aminocarbonyl)phenyl]-2-hydroxy-1-[3-(1,1,2,2-tetrafluoroethoxy)benzyl]ethyl]-6,7-dihydro-5H-benzo[a]cycloheptene-1-carboxamide]	197 to 199
O=C(NC(Cc1ccc(C(F)(F)F)cc1)C(O)c1ccc(F)cc1)c1cccs1 (racemic) [Example 11, N-[2-(4-fluorophenyl)-2-hydroxy-1-[[4-(trifluoromethyl)phenyl]methyl]ethyl]-2-thiophenecarboxamide]	135 to 164
COCc1oc(-c2ccccc2)c(C(=O)N[C@H](Cc2ccc(C(F)(F)F)cc2)[C@@H](O)c2ccc(F)cc2)c1-c1ccc(F)cc1 (racemic) [Example 91, 4-(4-fluorophenyl)-N-[(1RS,2SR)-2-(4-fluorophenyl)-2-hydroxy-1-[4-(trifluoromethyl)benzyl]ethyl]-5-[(methoxy)methyl]-2-phenylfuran-3-carboxamide]	204 to 206
CC(C)(C)OC(=O)N[C@H](Cc1cccc(OC(F)(F)C(F)F)c1)[C@@H](O)c1cccc(F)n1 (racemic) [Example 221, 1,1-dimethylethyl(1RS,2RS)-2-(6-fluoropyridin-2-yl)-2-hydroxy-1-((3-(1,1,2,2-tetrafluoroethoxy)phenyl)methyl)ethylcarbamate]	140 to 141
O=C(N[C@H](Cc1ccc(C(F)(F)F)cc1)[C@@H](O)c1ccc(F)cc1)c1cc([N+](=O)[O-])cc2c1CCCC2 (racemic) [Example 111, N-[(1RS,2SR)-2-(4-fluorophenyl)-2-hydroxy-1-[4-(trifluoromethyl)benzyl]ethyl]-3-nitro-5,6,7,8-tetrahydronaphthalene-1-carboxamide]	216 to 217
O=C(N[C@H](Cc1cccc(OC(F)(F)C(F)F)c1)[C@@H](O)c1ccc(Cl)s1)c1cccc2c1C=CCCC2 (racemic) [Example 289, N-[(1RS,2RS)-2-(5-chloro-2-thienyl)-2-hydroxy-1-[3-(1,1,2,2-tetrafluoroethoxy)benzyl]ethyl]-6,7-dihydro-5H-benzo[a]cycloheptene-1-carboxamide]	177 to 178
CC(C)(C)OC(=O)N[C@H](Cc1cccc(OC(F)(F)C(F)F)c1)[C@@H](O)c1ccc(Cl)nc1 (racemic) [Example 328, tert-butyl N-[(1RS,2SR)-2-(6-chloropyridin-3-yl)-2-hydroxy-1-[3-(1,1,2,2-tetrafluoroethoxy)benzyl]ethyl]carbamate]	119 to 121
COC(=O)CCC(=O)O[C@H](c1ccc(F)cc1)[C@H](Cc1cccc(OC(F)(F)C(F)F)c1)NC(=O)c1cccc2c1C=CCCC2 (racemic) (as salt: succinate) [Example 383, (1RS,2SR)-2-[(6,7-dihydro-5H-benzo[a]cyclohepten-1-ylcarbonyl)amino]-1-(4-fluorophenyl)-3-[3-(1,1,2,2-tetrafluoroethoxy)phenyl]propyl methyl succinate]	170 to 171
CCCCNC(=O)c1ccc([C@H](O)[C@@H](Cc2cccc(OC(F)(F)C(F)F)c2)NC(=O)c2cccc3c2C=CCCC3)cc1 (racemic) [Example 317, N-[(1RS,2SR)-2-[4-[(butylamino)carbonyl]phenyl]-2-hydroxy-1-[3-(1,1,2,2-tetrafluoroethoxy)benzyl]ethyl]-6,7-dihydro-5H-benzo[a]cycloheptene-1-carboxamide]	207 to 208
CC(C)(C)Oc1ccc(C[C@@H](NC(=O)c2cccc3c2C=CCCC3)[C@@H](O)c2cccc(Cl)c2)cc1 (racemic) [Example 276, N-[(1RS,2SR)-1-(4-tert-butoxybenzyl)-2-(3-chlorophenyl)-2hydroxyethyl]-6,7-dihydro-5H-benzo[a][7]annulene-1-carboxamide]	180 to 181
O=C(N[C@H](Cc1ccc(C(F)(F)F)cc1)[C@H](O)c1ccc(F)cc1)c1ccc(C(F)(F)F)cc1 (racemic) [Example 27, N-((1RS,2RS)-2-(4-fluorophenyl)-2-hydroxy-1-((4-(trifluoromethyl)phenyl)methyl)ethyl)-4-(trifluoromethyl)benzamide]	162 to 163
CC(C)(C)OC(=O)N[C@H](Cc1cccc(OC(F)(F)C(F)F)c1)[C@@H](O)c1ccnc(F)c1 (racemic) [Example 219, 1,1-dimethylethyl(1RS,2SR)-2-(2-fluoropyridin-4-yl)-2-hydroxy-1-((3-(1,1,2,2-tetrafluoroethoxy)phenyl)methyl)ethylcarbamate]	143 to 144
O=C(N[C@H](Cc1cccc(OC(F)(F)C(F)F)c1)[C@@H](O)c1cccc(OCc2ccccc2)c1)c1cccc2c1C=CCCC2 (racemic) [Example 240, N-{(1RS,2SR)-2-[3-(benzyloxy)phenyl]-2-hydroxy-1-[3-(1,1,2,2-tetrafluoroethoxy)benzyl]ethyl}-6,7-dihydro-5H-benzo[a][7]annulene-1-carboxamide]	128 to 129
